From paper PMC11022729 (Advanced Science, 2024)
Where “and” joins values, the source holds several entries; their conditions need not be identical. Equal values may be shown once.

How the values were obtained:
human Slack = molecular target: T1, human Slack (Homo sapiens, UniProt Q5JUK3); assay: FluxOR potassium ion channel assay in HEK-Slack cells; format: cell-based
T1 construct: host or cells: HEK293
T1 sequence (Q5JUK3 1-1230): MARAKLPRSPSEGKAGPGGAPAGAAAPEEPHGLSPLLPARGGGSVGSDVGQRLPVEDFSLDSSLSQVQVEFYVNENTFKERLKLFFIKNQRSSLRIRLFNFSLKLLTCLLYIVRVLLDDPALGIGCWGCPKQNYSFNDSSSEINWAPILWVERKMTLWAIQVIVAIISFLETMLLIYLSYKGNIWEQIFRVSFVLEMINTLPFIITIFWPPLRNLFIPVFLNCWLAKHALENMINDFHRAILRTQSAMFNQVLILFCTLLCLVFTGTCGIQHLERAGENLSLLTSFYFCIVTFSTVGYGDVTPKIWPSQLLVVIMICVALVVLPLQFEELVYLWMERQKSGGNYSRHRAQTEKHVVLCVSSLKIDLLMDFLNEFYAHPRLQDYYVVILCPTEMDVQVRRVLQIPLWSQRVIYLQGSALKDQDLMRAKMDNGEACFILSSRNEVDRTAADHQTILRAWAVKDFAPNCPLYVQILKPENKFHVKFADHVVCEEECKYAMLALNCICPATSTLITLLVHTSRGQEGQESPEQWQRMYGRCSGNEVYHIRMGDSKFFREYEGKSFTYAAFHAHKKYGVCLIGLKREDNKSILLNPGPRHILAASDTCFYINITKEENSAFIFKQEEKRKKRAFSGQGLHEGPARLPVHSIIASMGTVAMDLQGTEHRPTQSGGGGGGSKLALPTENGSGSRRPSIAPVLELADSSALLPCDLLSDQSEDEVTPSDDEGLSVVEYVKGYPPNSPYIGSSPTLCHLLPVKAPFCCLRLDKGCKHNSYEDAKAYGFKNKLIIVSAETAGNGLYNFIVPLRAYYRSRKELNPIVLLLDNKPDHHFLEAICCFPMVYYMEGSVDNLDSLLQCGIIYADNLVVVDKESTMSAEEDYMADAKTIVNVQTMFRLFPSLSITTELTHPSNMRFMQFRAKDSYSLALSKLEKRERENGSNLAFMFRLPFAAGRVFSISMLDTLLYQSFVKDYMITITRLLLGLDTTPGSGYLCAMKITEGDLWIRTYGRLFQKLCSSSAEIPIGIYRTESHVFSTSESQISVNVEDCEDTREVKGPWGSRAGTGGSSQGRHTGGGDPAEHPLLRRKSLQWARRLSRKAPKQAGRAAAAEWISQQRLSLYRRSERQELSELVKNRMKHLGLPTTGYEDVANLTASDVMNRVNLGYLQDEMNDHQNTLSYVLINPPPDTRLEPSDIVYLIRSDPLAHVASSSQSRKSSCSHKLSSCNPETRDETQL
Method: The functional activity of this series of compounds against human Slack was determined using a cell‐based FluxOR potassium ion channel assay in cultured HEK293 cells stably expressing human Slack (herein referred to as HEK‐Slack cells) and a Na^+‐free assay buffer to prevent compound‐independent Slack activation by monovalent cations.^[ [14], [24] ^] […] Of the 114 newly synthesized compounds, 31 acted as Slack activators to varying extents. Accordingly, we deemed eight of these as the most interesting candidates.
To determine the Slack‐activating efficacy and potency of the novel compounds, a commercial FluxOR potassium ion channel assay (#10 017; Invitrogen) was used. HEK‐Slack cells were plated at a density of 50 000 cells per well on a poly‐D‐lysine coated (75 µg mL^−1, Sigma–Aldrich) 96‐well, black‐walled microplate with clear bottom (#655 090; Greiner Bio‐One) in DMEM (100 µL per well) containing 10% FBS and 1% penicillin/streptomycin 24 h prior to assaying. In the initial experiments shown in Figure S3A–F (Supporting Information), HEK‐Slack cells were plated at a density of 100 000 cells/well 48 h prior to the assay. On the day of the experiment, the cells were loaded with FluxOR dye according to the manufacturer's protocol. A Na^+‐free assay buffer, adjusted to pH 7.4 with KOH, containing 140 mM choline chloride, 5 mM KCl, 2 mM CaCl2, 2 mM MgSO4, 10 mM HEPES, and 5.55 mM glucose was used. To reduce background fluorescence, all assay components were complemented with a 10% BackDrop Background Suppressor (#B10511; Invitrogen).
All compounds were prepared as a 333 mM stock in DMSO and diluted on the experimental day to a final concentration of 100, 50, 25, 12.5, 6.25, 3.125, or 1.5625 µM in an assay buffer with DMSO adjusted to 0.03%. Before treatment, the cells were washed, and the medium was exchanged for the assay buffer. In a total volume of 90 µL per well, the cells were then incubated for 30 min at 37 °C with compounds at the indicated concentrations, or 0.03% DMSO alone as the vehicle. […] Fluorescence was measured using an Infinite M200 microplate reader (Tecan) with excitation at 485 nm (9 nm bandwidth) and emission at 525 nm (20 nm bandwidth) in the bottom read mode. First, the baseline fluorescence of the individual wells was established. Thereafter cells were stimulated with 20 µL Tl2SO4 (5 mM) solution injected at 100 µL s^−1, and fluorescence was further recorded for 100 s. Assays were run in triplicate. For all time points, the ratio of fluorescence to baseline fluorescence was calculated first for individual wells, and the average was then used.
Dose‐response curves comprising six concentrations were obtained in triplets using fluorescence/fluorescenceBaseline ratios at the 100th s.

adrenergic α1A receptor = molecular target: T2, adrenergic α1A receptor (Homo sapiens, UniProt P35348); assay: SafetyScreen44 panel; format: binding
T2 construct: purchased Eurofins Cerep P270
Method: (§1) Measurements were performed in duplicate.
(§2) channel, which were obtainedfrom ratspecimens).
(§3) in brackets) specific for each target.

[1] = molecular target: T3, serotonin 5-HT2A receptor (Homo sapiens, UniProt P28223); assay: SafetyScreen44 panel; format: binding
T3 construct: purchased Eurofins Cerep P270
Method: as §1, §2, §3

mice [2] = assay: Accelerating rotarod test; format: in vivo, mouse; settings: 15 min after dosing
Method: As a prerequisite for interpreting itch behavior experiments, we first tested motor function after systemic dosing.
Mice were placed on a rotarod treadmill (Ugo Basile, Italy) at increasing speed (4–40 rpm over 300 s) and trained for 4–5 consecutive days. Only mice that reached 300 s without falling off during the training sessions were included in the experiment. In the vertical pole test, the mice were placed head‐upward on top of a vertical pole with a rough surface (diameter, 1 cm; height, 40 cm), and the time until the animals reached the ground was recorded (cut‐off time 20 s). Only mice that reached the ground within 10 s in the baseline measurements were included in the experiment. […] The means of three trials at each time point were calculated for further analyses.

mice [3] = assay: Hargreaves test; format: in vivo; settings: 10 mg kg−1 i.p., hindpaws, vs vehicle
Method: An infrared heat source (intensity set to 25) was applied to the plantar surface of the hind paw, and the time until the animal elicited a withdrawal response was determined. Each hind paw was measured 4–5 times with a minimum interval of 20 s between measurements, and the mean value was calculated. Measurements that reached the cutoff time (20 s) were excluded.

[4] = HEK-Slack cells, Na+-free assay buffer, mean (95% confidence interval)

T3 sequence (P28223 whole entry): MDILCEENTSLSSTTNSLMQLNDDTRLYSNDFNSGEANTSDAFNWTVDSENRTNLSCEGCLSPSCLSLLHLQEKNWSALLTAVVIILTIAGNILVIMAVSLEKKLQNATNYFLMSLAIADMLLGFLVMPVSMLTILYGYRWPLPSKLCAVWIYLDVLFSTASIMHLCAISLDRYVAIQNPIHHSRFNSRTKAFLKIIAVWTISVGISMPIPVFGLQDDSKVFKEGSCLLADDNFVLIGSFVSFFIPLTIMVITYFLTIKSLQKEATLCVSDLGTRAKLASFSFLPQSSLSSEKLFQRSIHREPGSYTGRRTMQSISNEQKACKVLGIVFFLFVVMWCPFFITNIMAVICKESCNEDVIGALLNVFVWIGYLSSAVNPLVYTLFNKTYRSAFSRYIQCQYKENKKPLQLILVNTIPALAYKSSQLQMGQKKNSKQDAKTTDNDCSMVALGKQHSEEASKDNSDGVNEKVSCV
T2 sequence (P35348 whole entry): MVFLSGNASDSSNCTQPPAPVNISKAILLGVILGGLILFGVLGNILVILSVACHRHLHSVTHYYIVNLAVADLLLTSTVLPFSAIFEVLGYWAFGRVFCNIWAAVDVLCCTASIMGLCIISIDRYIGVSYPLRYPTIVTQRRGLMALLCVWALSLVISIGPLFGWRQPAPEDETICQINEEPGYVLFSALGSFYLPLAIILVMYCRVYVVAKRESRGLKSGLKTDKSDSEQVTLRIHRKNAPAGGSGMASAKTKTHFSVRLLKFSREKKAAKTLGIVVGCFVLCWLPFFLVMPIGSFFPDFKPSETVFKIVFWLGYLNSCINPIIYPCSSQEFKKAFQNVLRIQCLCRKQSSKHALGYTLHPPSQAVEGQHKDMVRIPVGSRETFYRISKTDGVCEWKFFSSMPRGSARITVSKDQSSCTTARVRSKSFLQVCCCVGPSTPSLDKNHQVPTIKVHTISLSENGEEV

Row | SMILES | Emax (human Slack) | EC50 (human Slack; [4]) | EC50 (human Slack; first preliminary experiments, Na+-free buffer with 2 mM Ca2+, 2 mM Mg2+ and 0.03% DMSO) | inhibition at 10 µM (adrenergic α1A receptor; read-out: binding inhibition) | inhibition at 10 µM ([1]; read-out: binding inhibition) | motor function, accelerating rotarod test (mice [2]; dose of ≥ 0.39 mg kg−1 i.p.) | binding inhibition (adrenergic α1A receptor; 10 µM) | binding inhibition ([1]; 10 µM) | motor function, accelerating rotarod test (mice [2]; 3–30 mg i.p.) | thermal sensitivity (Hargreaves test) (mice [3])
1 | CN1CCN(C2=Nc3ccccc3Oc3ccc(Cl)cc32)CC1 [Loxapine, reference compound] | 100% | 20.7 µM | 23.4 µM | > 50% | > 50% | markedly reduced the ability of the mice to perform | – | – | – | –
2 | O=C(O)COCCN1CCN(C2=Nc3ccccc3Oc3ccc(Cl)cc32)CC1 [Compound 6] | 96.2% | 30 µM and 30.3 µM | – | – | – | – | substantial binding | substantial binding | did not impair motor function | Neither mechanical nor thermal sensitivity was altered
